Results: patent publication US9492470B2, “Use of HMGA-targeted phosphorothioate DNA aptamers to suppress carcinogenic activity and increase sensitivity to chemotherapy agents in human cancer cells” (MIAMI UNIVERSITY, priority 2012, dated 2016)
In the oligonucleotide strings, read from the 5' end, every base follows the letter of its sugar. An asterisk marks phosphorothioate; unmarked linkages are phosphodiester. Other units and linkages are bracketed, terminal groups are in braces. A string of capitals states the bases alone. d = 2'-deoxy (DNA)

Key:
[1] = cited from earlier work
HMGA1 = target: T1, HMGA1 (Homo sapiens, UniProt P17096); experiment: Electrophoretic mobility shift assay (EMSA), HMGA1 competitive binding against ATf10 DNA; settings: for formation of HMGA/ATf10 DNA complex in presence of competitor DNA: equal amounts of ATf10 and CG10 or Mix10, ATf10 DNA:HMGA1 1:1
T1 construct: The cDNA for full length HMGA1b was cloned into pET-30b; made in house; host or cells: Escherichia coli BL21 (DE3)
T1 sequence (P17096 1-96 isoform P17096-2): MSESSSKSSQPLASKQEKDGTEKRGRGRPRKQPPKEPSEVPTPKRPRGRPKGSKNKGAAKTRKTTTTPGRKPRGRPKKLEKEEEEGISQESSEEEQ
Procedure: The cDNA for full length HMGA1b was cloned into pET-30b and overexpressed in Eschericia coli (E. Coli) BL21 (DE3). E. coli expressing HMGA1b was cultured at 37° C. to an OD600 measurement of 0.8 to 1.0 OD600. Protein expression was induced by the addition of 1 mM IPTG and shaking at 37° C. for 4-6 hours. HMGA1 was purified by trichloroacetic acid precipitation as described in R. Reeves, HMGA proteins: isolation, biochemical modifications, and nucleosome interactions. Methods in enzymology 375 (2004) 297-322, the disclosure of which is incorporated herein by reference. Overexpressed HMGA1b was further purified with a Sephadex G-25 column in H2O and lyophilized using a standard freezedrying procedure. The samples were resolublized in a 25 mM Tris-HCl (pH 6.5), 50 mM NaCl buffer for analysis.
The following 28-mer oligonucleotides were purchased from Integrated DNA Technologies (Coralville, Iowa, USA): ATf10 5′-(56FAM)-[…]-3′ (SEQ ID NO: 4), and ATs10 5′-GGGT*T*T*T*T*T*T*T*T*T*[…]-3′ (SEQ ID NO: 5) (the “*” indicates the location of phosphorothioate linkage). ATf10 contained a fluorescence tag to serve as a marker for later analysis. […] AT10f was annealed with its complementary strand without a fluorescence tag, and ATs10 was annealed with a strand with no sulfur substitution. […]
The HMGA protein samples were prepared in 25 mM Tris-HCl (pH 6.5), 50 mM NaCl, and the concentrations determined based on UV […] absorbance (ε=38,200 mol-1 cm-1). […] The DNA was detected at 495 nm using the VersaDoc™ Imaging System Model 3000 from BIO-RAD Laboratories, Inc. of Hercules, Calif. […]
In order to determine if HMGA1 DNA binding activity was affected by sulfur substitution in the DNA phosphodiester backbone, fluorescence labeled DNA (ATf10 DNA) was used in competitive binding assays against various sulfur substituted DNAs where different ratios of ATf10 DNA and ATs10 DNA were added to a constant amount of purified HMGA1 (FIG. 1A). […]
Since ATs10 DNA has no fluorescence label, no signal could be detected when only ATs10DNA was added to HMGA1 (FIG. 1A, lane 9). […]

Row | Compound | formation of HMGA/ATf10 DNA complex in presence of competitor DNA (HMGA1) | other results
1 | NC(=O)OC[C@H]1c2c(O)cc(C=O)cc2N2CC3N[C@@H]3[C@]1(O)O2 (stereo partly shown) [FR900482] | – | toxicity in humans [1]: high toxicity
2 | ATs10: 28-mer oligonucleotide with phosphorothioate linkages in the T tract (SEQ ID NO: 5) (DNA dGdGdGdT*dT*dT*dT*dT*dT*dT*dT*dT*dT*dCdGdCdGdGdCdGdGdCdCdCdCdGdCdG; annealed with complementary strand) | – | ATf10 DNA detected in the unshifted position (HMGA1; 1:1 ratio of ATf10 DNA to ATs10 DNA, ATf10 DNA to HMGA1 1:1.5 (FIG. 1A, lane 4)): approximately half
3 | CG10: negative control DNA containing only a mixture of C and G (SEQ ID NO: 6) (DNA GGGCCCCCCCCCCCGCGGCGGCCCCGCG; DNA, all phosphodiester, methylation of C not given here) | still observed | –
4 | Mix10: negative control DNA, random sequence of A, T, C, G with no AT-stretch (SEQ ID NO: 7) (DNA GGGCGTGACTGAGCGCGGCGGCCCCGCG; DNA, all phosphodiester, methylation of C not given here) | still observed | –
